The values that follow come from patent US20040001859A1, “Anti-aging dietary supplements” (priority 2002, published 2004).

The assay deals with MDA (lipid peroxidation) in blood. The experiment in a line: MDA rat model assay (blood MDA, aged rats). The class given is in vivo, wistar rats. The procedure: A total of forty 3.5 year old wistar rats were divided into four groups, each containing 10 rats. Groups A, B, C and VE were treated with the activated yeast composition, the control yeast composition, saline and Vitamin E, respectively. Eight 8 month old wistar rats were also selected for group D, which were used as a junior control group.
Groups A, B and VE were administered daily 3 ml/kg (body weight) of the activated yeast composition, 3 ml/kg of the control yeast composition and 0.25 mg/kg of Vitamin E, respectively. Groups C and D were both treated with 3 ml/kg of saline daily. After three months of treatment, blood samples were taken from the heart of the rats and placed in a test tube with heparin. The test tube was then incubated at 37° C. for 10 minutes and centrifuged at 2500 rpm for 10 minutes. 4 ml of sulfuric acid and 0.5 ml of phosphotungstic acid were added to the serum and left at room temperature for 5 minutes after mixing. The mixture was then centrifuged at 3000 rpm for 10 minutes. 2 ml of sulfuric acid and 0.3 ml of phosphotungstic acid were added to the precipitate. Finally, the mixture was used to determine the MDA concentration as described previously.

Structures are written as SMILES.

As to `Cc1c(C)c2c(c(C)c1O)CC[C@@](C)(CCC[C@H](C)CCC[C@H](C)CCCC(C)C)O2` [VE, Vitamin E], the “MDA” value (3.5 year old rats, blood from heart after three months of daily treatment, yeast compositions 3 ml/kg, Vitamin E 0.25 mg/kg) was 4.36 ± 0.78 µM. Moreover, for the setting “aged rats, three months, in words”, the “lipid peroxidation compared to control yeast composition or saline” value is recorded as “reduced lipid peroxidation”.
